# Measurements published in patent publication US20250115595A1, “INHIBITORS OF HYPOXIA-INDUCIBLE FACTORS” (The Johns Hopkins University, priority 2021, published 2025).
# Tested on: cytokine mRNAs
# Experiment: RT-qPCR array of mouse cytokines and chemokines in Hepa1-6 tumors
# Assay type: in vivo
# Settings: Hepa1-6 tumors, vs vehicle
# Experimental: Total RNA from Hepa1-6 tumors was analyzed using the RT2 Profiler PCR Array of Mouse Cytokines and Chemokines (Qiagen, catalog number 330231 PAMM-150ZA) according to the manufacturer's instructions.
smiles,measurement,value
"Brc1ccc2c(-c3csc(-c4c[nH]c5c(Br)cccc45)n3)c[nH]c2c1 [Compound 32-134D, 4-(6-bromo-1H-indol-3-yl)-2-(7-bromo-1H-indol-3-yl)thiazole]",Adipoq mRNA Fold Change Test Group/Control Group,0.43
same,Adipoq mRNA Fold Up- or Down-Regulation Test Group/Control Group,−2.31
same,Adipoq mRNA X axis (Log2(fold change)),−1.21
same,Bmp2 mRNA Fold Change Test Group/Control Group,0.51
same,Bmp2 mRNA Fold Up- or Down-Regulation Test Group/Control Group,−1.95
same,Bmp2 mRNA X axis (Log2(fold change)),−0.96
same,Bmp4 mRNA Fold Change Test Group/Control Group,0.64
same,Bmp4 mRNA Fold Up- or Down-Regulation Test Group/Control Group,−1.96
same,Bmp4 mRNA X axis (Log2(fold change)),−0.64
same,Bmp6 mRNA Fold Change Test Group/Control Group,0.44
same,Bmp6 mRNA Fold Up- or Down-Regulation Test Group/Control Group,−2.27
same,Bmp6 mRNA X axis (Log2(fold change)),−1.18
same,Bmp7 mRNA Fold Change Test Group/Control Group,0.70
same,Bmp7 mRNA Fold Up- or Down-Regulation Test Group/Control Group,−1.43
same,Bmp7 mRNA X axis (Log2(fold change)),−0.51
same,Cc15 mRNA Fold Change Test Group/Control Group,0.92
same,Cc15 mRNA Fold Up- or Down-Regulation Test Group/Control Group,−1.09
same,Cc15 mRNA X axis (Log2(fold change)),−0.13
same,Cc120 mRNA Fold Change Test Group/Control Group,0.42
same,Cc120 mRNA Fold Up- or Down-Regulation Test Group/Control Group,−2.41
same,Cc120 mRNA X axis (Log2(fold change)),−1.27
same,Ccl1 mRNA Fold Change Test Group/Control Group,0.63
same,Ccl1 mRNA Fold Up- or Down-Regulation Test Group/Control Group,−1.58
same,Ccl1 mRNA X axis (Log2(fold change)),−0.66
same,Ccl2 mRNA Fold Change Test Group/Control Group,1.35
same,Ccl2 mRNA Fold Up- or Down-Regulation Test Group/Control Group,1.35
same,Ccl2 mRNA X axis (Log2(fold change)),0.44
same,Ccl3 mRNA Fold Change Test Group/Control Group,1.06
same,Ccl3 mRNA Fold Up- or Down-Regulation Test Group/Control Group,1.06
same,Ccl3 mRNA X axis (Log2(fold change)),0.09
same,Ccl4 mRNA Fold Change Test Group/Control Group,0.72
same,Ccl4 mRNA Fold Up- or Down-Regulation Test Group/Control Group,−1.39
same,Ccl4 mRNA X axis (Log2(fold change)),−0.47
same,Ccl7 mRNA Fold Change Test Group/Control Group,1.03
same,Ccl7 mRNA Fold Up- or Down-Regulation Test Group/Control Group,1.03
same,Ccl7 mRNA X axis (Log2(fold change)),0.04
same,Ccl11 mRNA Fold Change Test Group/Control Group,1.03
same,Ccl11 mRNA Fold Up- or Down-Regulation Test Group/Control Group,1.03
same,Ccl11 mRNA X axis (Log2(fold change)),0.04
same,Ccl12 mRNA Fold Change Test Group/Control Group,4.11
same,Ccl12 mRNA Fold Up- or Down-Regulation Test Group/Control Group,4.11
same,Ccl12 mRNA X axis (Log2(fold change)),2.04
same,Ccl17 mRNA Fold Change Test Group/Control Group,0.68
same,Ccl17 mRNA Fold Up- or Down-Regulation Test Group/Control Group,−1.47
same,Ccl17 mRNA X axis (Log2(fold change)),−0.56
same,Ccl19 mRNA Fold Change Test Group/Control Group,0.54
same,Ccl19 mRNA Fold Up- or Down-Regulation Test Group/Control Group,−1.86
same,Ccl19 mRNA X axis (Log2(fold change)),−0.89
same,Ccl22 mRNA Fold Change Test Group/Control Group,0.31
same,Ccl22 mRNA Fold Up- or Down-Regulation Test Group/Control Group,−3.18
same,Ccl22 mRNA X axis (Log2(fold change)),−1.67
same,Ccl24 mRNA Fold Change Test Group/Control Group,1.21
same,Ccl24 mRNA Fold Up- or Down-Regulation Test Group/Control Group,1.21
same,Ccl24 mRNA X axis (Log2(fold change)),0.27
same,Cd40lg mRNA Fold Change Test Group/Control Group,0.52
same,Cd40lg mRNA Fold Up- or Down-Regulation Test Group/Control Group,−1.91
same,Cd40lg mRNA X axis (Log2(fold change)),−0.93
same,Cd70 mRNA Fold Change Test Group/Control Group,0.24
same,Cd70 mRNA Fold Up- or Down-Regulation Test Group/Control Group,−4.19
same,Cd70 mRNA X axis (Log2(fold change)),−2.07
same,Cntf mRNA Fold Change Test Group/Control Group,0.38
same,Cntf mRNA Fold Up- or Down-Regulation Test Group/Control Group,−2.61
same,Cntf mRNA X axis (Log2(fold change)),−1.39
same,Csf1 mRNA Fold Change Test Group/Control Group,1.02
same,Csf1 mRNA Fold Up- or Down-Regulation Test Group/Control Group,1.02
same,Csf1 mRNA X axis (Log2(fold change)),0.03
same,Csf2 mRNA Fold Change Test Group/Control Group,0.38
same,Csf2 mRNA Fold Up- or Down-Regulation Test Group/Control Group,−2.64
same,Csf2 mRNA X axis (Log2(fold change)),−1.40
same,Csf3 mRNA Fold Change Test Group/Control Group,0.50
same,Csf3 mRNA Fold Up- or Down-Regulation Test Group/Control Group,−1.99
same,Csf3 mRNA X axis (Log2(fold change)),−0.99
same,Ctf1 mRNA Fold Change Test Group/Control Group,0.19
same,Ctf1 mRNA Fold Up- or Down-Regulation Test Group/Control Group,−5.18
same,Ctf1 mRNA X axis (Log2(fold change)),−2.37
same,Cx3cl1 mRNA Fold Change Test Group/Control Group,0.53
same,Cx3cl1 mRNA Fold Up- or Down-Regulation Test Group/Control Group,−1.89
same,Cx3cl1 mRNA X axis (Log2(fold change)),−0.92
same,Cxcl1 mRNA Fold Change Test Group/Control Group,0.67
same,Cxcl1 mRNA Fold Up- or Down-Regulation Test Group/Control Group,1.49
same,Cxcl1 mRNA X axis (Log2(fold change)),−0.57
same,Cxcl3 mRNA Fold Change Test Group/Control Group,0.87
same,Cxcl3 mRNA Fold Up- or Down-Regulation Test Group/Control Group,−1.14
same,Cxcl3 mRNA X axis (Log2(fold change)),−0.19
same,Cxcl5 mRNA Fold Change Test Group/Control Group,1.05
same,Cxcl5 mRNA Fold Up- or Down-Regulation Test Group/Control Group,1.05
same,Cxcl5 mRNA X axis (Log2(fold change)),0.07
same,Cxcl9 mRNA Fold Change Test Group/Control Group,1.64
same,Cxcl9 mRNA Fold Up- or Down-Regulation Test Group/Control Group,1.64
same,Cxcl9 mRNA X axis (Log2(fold change)),0.71
same,Cxcl10 mRNA Fold Change Test Group/Control Group,1.44
same,Cxcl10 mRNA Fold Up- or Down-Regulation Test Group/Control Group,1.44
same,Cxcl10 mRNA X axis (Log2(fold change)),0.53
same,Cxcl11 mRNA Fold Change Test Group/Control Group,0.45
same,Cxcl11 mRNA Fold Up- or Down-Regulation Test Group/Control Group,−2.24
same,Cxcl11 mRNA X axis (Log2(fold change)),−1.16
same,Cxcl12 mRNA Fold Change Test Group/Control Group,2.26
same,Cxcl12 mRNA Fold Up- or Down-Regulation Test Group/Control Group,2.26
same,Cxcl12 mRNA X axis (Log2(fold change)),1.17
same,Cxcl13 mRNA Fold Change Test Group/Control Group,0.39
same,Cxcl13 mRNA Fold Up- or Down-Regulation Test Group/Control Group,−2.57
same,Cxcl13 mRNA X axis (Log2(fold change)),−1.36
same,Cxcl16 mRNA Fold Change Test Group/Control Group,0.61
same,Cxcl16 mRNA Fold Up- or Down-Regulation Test Group/Control Group,−1.65
same,Cxcl16 mRNA X axis (Log2(fold change)),−0.72
same,Fasl mRNA Fold Change Test Group/Control Group,0.59
same,Fasl mRNA Fold Up- or Down-Regulation Test Group/Control Group,−1.70
same,Fasl mRNA X axis (Log2(fold change)),−0.77
same,Gpi1 mRNA Fold Change Test Group/Control Group,0.64
same,Gpi1 mRNA Fold Up- or Down-Regulation Test Group/Control Group,−1.57
same,Gpi1 mRNA X axis (Log2(fold change)),−0.65
same,Hc mRNA Fold Change Test Group/Control Group,1.77
same,Hc mRNA Fold Up- or Down-Regulation Test Group/Control Group,1.77
same,Hc mRNA X axis (Log2(fold change)),0.82
same,Lif mRNA Fold Change Test Group/Control Group,0.40
same,Lif mRNA Fold Up- or Down-Regulation Test Group/Control Group,−2.48
same,Lif mRNA X axis (Log2(fold change)),−1.31
same,Lta mRNA Fold Change Test Group/Control Group,0.34
same,Lta mRNA Fold Up- or Down-Regulation Test Group/Control Group,−2.96
same,Lta mRNA X axis (Log2(fold change)),−1.57
same,Ltb mRNA Fold Change Test Group/Control Group,0.63
same,Ltb mRNA Fold Up- or Down-Regulation Test Group/Control Group,−1.58
same,Ltb mRNA X axis (Log2(fold change)),−0.66
same,Mif mRNA Fold Change Test Group/Control Group,1.12
same,Mif mRNA Fold Up- or Down-Regulation Test Group/Control Group,1.12
same,Mif mRNA X axis (Log2(fold change)),0.17
same,Mstn mRNA Fold Change Test Group/Control Group,0.21
